Results from patent US9783530B2, “Factor Xla inhibitors” (Merck Sharp & Dohme Corp., priority 2014, dated 2017).

Key:
[1] = target: purified human Factor XIa (Homo sapiens (Human), UniProt P03951); test: Factor XIa Assay; type: biochemical; settings: purified human Factor XIa 40 pM, substrate Z-Gly-Pro-Arg-AFC, pH 7.4; read-out: FXIa IC50
Experimental: The effectiveness of a compound of the present invention as an inhibitor of Coagulation Factor XIa can be determined using a relevant purified serine protease, and an appropriate synthetic substrate. The rate of hydrolysis of the chromogenic or fluorogenic substrate by the relevant serine protease was measured both in the absence and presence of compounds of the present invention. Assays were conducted at room temperature or at 37° C. […] A decrease in the rate of fluorescence change in the presence of inhibitor is indicative of enzyme inhibition. Such methods are known to one skilled in the art. […]
Factor XIa determinations were made in 50 mM HEPES buffer at pH 7.4 containing 150 mM NaCl, 5 mM CaCl2, and 0.1% PEG 8000 (polyethylene glycol; JT Baker or Fisher Scientific). Determinations were made using purified human Factor XIa at a final concentration of 40 pM (Sekisui Diagnostics) and he synthetic substrate, Z-Gly-Pro-Arg-AFC, TFA salt (Sigma #C0980) at a concentration of 100 µM.
Activity assays were performed by diluting a stock solution of substrate at least tenfold to a final concentration ≦0.1 Km into a solution containing enzyme or enzyme equilibrated with inhibitor. Times required to achieve equilibration between enzyme and inhibitor were determined in control experiments. Initial velocities of product formation in the absence (Vo) or presence of inhibitor (Vi) were measured. Assuming competitive inhibition, and that unity is negligible compared Km/[S], [I]/e, and [I]/e (where [S], [I], and e respectively represent the total concentrations, of substrate, inhibitor and enzyme), the equilibrium constant (Ki) for dissociation of the inhibitor from the enzyme can be obtained from the dependence of Vo/Vi on [I] shown in the following equation.

[2] = target: purified Human plasma kallikrein (Homo sapiens (Human), UniProt P03952); test: Kallikrein Assay; type: biochemical; settings: purified Human plasma kallikrein 0.5 nM, substrate Acetyl-K-P-R-AFC, pH 7.4; read-out: P. KLK IC50
Experimental: The effectiveness of a compound of the present invention as an inhibitor of Kallikrein can be determined using a relevant purified serine protease, and an appropriate synthetic substrate. The rate of hydrolysis of the chromogenic or fluorogenic substrate by the relevant serine protease was measured both in the absence and presence of compounds of the present invention. Assays were conducted at room temperature or at 37° C. […] A decrease in the rate of fluorescence change in the presence of inhibitor is indicative of enzyme inhibition. Such methods are known to one skilled in the art. The results of this assay are expressed as the inhibitory constant, Ki.
Kallikrein determinations were made in 50 mM HEPES buffer at pH 7.4 containing 150 mM NaCl, 5 mM CaCl2, and 0.1% PEG 8000 (polyethylene glycol; Fisher Scientific). Determinations were made using purified Human plasma kallikrein at a final concentration of 0.5 nM (Enzyme Research Laboratories) and the synthetic substrate, Acetyl-K-P-R-AFC (Sigma # C6608) at a concentration of […].
Activity assays were performed by diluting a stock solution of substrate at least tenfold to a final concentration ≦0.2 Km into a solution containing enzyme or enzyme equilibrated with inhibitor. Times required to achieve equilibration between enzyme and inhibitor were determined in control experiments. The reactions were performed under linear progress curve conditions and fluorescence increase measured at 405 Ex/510 Em nm. Values were converted to percent inhibition of the control reaction (after subtracting 100% Inhibition value). IC50 was determined by inflection point from a four parameter logistic curve fit. Ki was calculated using the Cheng Prusoff equation, Ki=IC50/(1+([S]/Km)).

Chain of purified Human plasma kallikrein (P03952 391-638): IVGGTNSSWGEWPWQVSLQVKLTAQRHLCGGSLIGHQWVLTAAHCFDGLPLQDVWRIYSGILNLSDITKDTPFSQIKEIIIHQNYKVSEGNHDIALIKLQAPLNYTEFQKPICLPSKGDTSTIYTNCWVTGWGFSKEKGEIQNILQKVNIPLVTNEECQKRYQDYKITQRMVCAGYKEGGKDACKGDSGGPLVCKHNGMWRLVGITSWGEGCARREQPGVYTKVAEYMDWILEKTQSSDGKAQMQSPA
Chain of purified Human plasma kallikrein (P03952 20-390 partner): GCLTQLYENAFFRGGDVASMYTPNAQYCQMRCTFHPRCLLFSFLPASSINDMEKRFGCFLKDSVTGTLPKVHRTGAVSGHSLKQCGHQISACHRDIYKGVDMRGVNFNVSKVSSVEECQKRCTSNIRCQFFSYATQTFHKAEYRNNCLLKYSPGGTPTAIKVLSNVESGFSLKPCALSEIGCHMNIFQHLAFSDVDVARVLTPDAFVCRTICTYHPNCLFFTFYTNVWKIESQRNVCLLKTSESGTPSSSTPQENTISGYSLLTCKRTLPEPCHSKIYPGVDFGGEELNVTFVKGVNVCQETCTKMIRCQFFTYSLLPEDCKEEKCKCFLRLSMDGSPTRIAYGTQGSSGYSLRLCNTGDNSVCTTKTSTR
Chain of purified human Factor XIa (P03951 388-625): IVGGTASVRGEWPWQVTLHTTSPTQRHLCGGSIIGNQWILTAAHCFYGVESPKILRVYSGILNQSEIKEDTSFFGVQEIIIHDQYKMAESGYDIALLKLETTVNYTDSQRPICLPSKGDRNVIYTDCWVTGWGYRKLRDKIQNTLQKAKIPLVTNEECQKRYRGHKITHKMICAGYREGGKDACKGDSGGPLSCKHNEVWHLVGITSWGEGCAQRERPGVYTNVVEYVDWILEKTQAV
Chain of purified human Factor XIa (P03951 19-387 partner): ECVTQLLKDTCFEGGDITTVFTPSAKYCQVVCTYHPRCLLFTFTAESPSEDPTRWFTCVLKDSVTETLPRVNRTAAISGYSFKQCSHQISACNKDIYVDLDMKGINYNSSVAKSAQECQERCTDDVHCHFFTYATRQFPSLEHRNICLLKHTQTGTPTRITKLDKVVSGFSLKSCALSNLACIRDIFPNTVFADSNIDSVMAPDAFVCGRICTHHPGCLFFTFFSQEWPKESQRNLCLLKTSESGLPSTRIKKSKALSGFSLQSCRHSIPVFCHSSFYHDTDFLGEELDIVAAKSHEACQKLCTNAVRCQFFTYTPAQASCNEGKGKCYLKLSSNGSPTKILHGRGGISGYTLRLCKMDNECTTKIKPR

| SMILES | IC50 [1] [nM] | IC50 [2] [nM] |
| --- | --- | --- |
| O=C(Cc1ccc(-c2c(F)ccc(Cl)c2F)c[n+]1[O-])Nc1ccc(C(=O)O)cc1 [Example 9, 4-({[5-(3-chloro-2,6-difluorophenyl)-1-oxidopyridin-2-yl]acetyl}amino) benzoic acid] | 89.2 | 1570 |
| O=C(O)c1ccc(NC(=O)[C@H](Cc2ccc(F)cc2)c2ccc(-c3cc(Cl)ccc3-n3cnnn3)c[n+]2[O-])cc1 [Example 8, 4-{[(2R)-2-{5-[5-chloro-2-(1H-tetrazol-1-yl)phenyl]-1-oxidopyridin-2-yl}-3-(4-fluorophenyl)propanoyl]amino}benzoic acid] | 0.26 | 3.4 |
| O=C(O)c1ccc(NC(=O)[C@H](Cc2ccccc2)c2ccc(-c3cc(Cl)ccc3-n3cnnn3)c[n+]2[O-])cc1 [Example 2, 4-{[(2R)-2-{5-[5-chloro-2-(1H-tetrazol-1-yl)phenyl]-1-oxidopyridin-2-yl}-3-phenylpropanoyl]amino} benzoic acid] | 0.16 | 1.2 |
| O=C(NC12CCC(C(=O)O)(CC1)CC2)C(Cc1ccccc1)c1ccc(-c2c(F)ccc(Cl)c2F)c[n+]1[O-] (single isomer, unassigned) [Example 15, 4-({2-[5-(3-chloro-2,6-difluorophenyl)-1-oxidopyridin-2-yl]-3-phenylpropanoyl}amino) bicyclo[2.2.2]octane-1-carboxylic acid] | 111 | 45 |
| O=C(Nc1ccc2cn[nH]c2c1)C(Cc1ccccc1)c1ccc(-c2cc(Cl)ccc2-n2cnnn2)c[n+]1[O-] (racemic) [Example 6, 2-{5-[5-chloro-2-(1H-tetrazol-1-yl)phenyl]-1-oxidopyridin-2-yl}-N-1H-indazol-6-yl-3-phenylpropanamide] | 0.24 | 1.9 |
| COc1cc(C(Cc2ccccc2)C(=O)Nc2ccc(C(=O)O)cc2)[n+]([O-])cc1-c1cc(Cl)ccc1C#N (single isomer, unassigned) [Example 24, 2-(1-((4-carboxyphenyl)amino)-1-oxo-3-phenyl-propan-2-yl)-5-(5-chloro-2-cyanophenyl)-4-methoxypyridine 1-oxide] | 0.29 | 0.7 |
| O=C(O)c1ccc(NC(=O)C(CC2CC2)c2ccc(-c3cc(Cl)ccc3-n3cc(CO)nn3)c[n+]2[O-])cc1 (racemic) [Example 42, 4-{[2-(5-{5-chloro-2-[4-(hydroxymethyl)-1H-1,2,3-triazol-1-yl]phenyl}-1-oxidopyridin-2-yl)-3-cyclopropylpropanoyl]amino}benzoic acid] | 8.45 | 1610 |
| O=C(O)c1ccc(NC(=O)C(CC2CC2)c2ccc(-c3cc(Cl)ccc3-n3cnnn3)c[n+]2[O-])cc1F (single isomer, unassigned) [Example 44, 4-[(2-{5-[5-chloro-2-(1H-tetrazol-1-yl)phenyl]-1-oxidopyridin-2-yl}-3-cyclopropylpropanoyl)amino]-2-fluorobenzoic acid] | 18 | 3260 |
| O=C(O)c1ccc(NC(=O)[C@@H](CC2CC2)c2ccc(-c3cc(Cl)ccc3-n3cnnn3)c[n+]2[O-])cc1 [Example 28, 4-{[(2S)-2-{5-[5-chloro-2-(1H-tetrazol-1-yl)phenyl]-1-oxidopyridin-2-yl}-3-cyclopropylpropanoyl]amino}benzoic acid] | 37 | 5820 |
| Cc1cc(C(=O)O)ccc1NC(=O)C(CC1CC1)c1ccc(-c2cc(Cl)ccc2-n2cnnn2)c[n+]1[O-] (single isomer, unassigned) [Example 47, 4-[(2-{5-[5-chloro-2-(1H-tetrazol-1-yl)phenyl]-1-oxidopyridin-2-yl}-3-cyclopropylpropanoyl)amino]-3-methylbenzoic acid] | 15.1 | 2350 |
| O=C(Nc1ccc2cn[nH]c2c1)C(Cc1ccccc1)c1ccc(-c2c(F)ccc(Cl)c2F)c[n+]1[O-] (racemic) [Example 5, 2-[5-(3-chloro-2,6-difluorophenyl)-1-oxidopyridin-2-yl]-N-1H-indazol-6-yl-3-phenylpropanamide] | 109 | 91.4 |
| COc1cc(C(Cc2ccccc2)C(=O)Nc2ccc(C(=O)O)cc2)[n+]([O-])cc1-c1cc(Cl)ccc1C#N (single isomer, unassigned) [Example 23, 2-(1-((4-carboxyphenyl)amino)-1-oxo-3-phenylpropan-2-yl)-5-(5-chloro-2-cyanophenyl)-4-methoxypyridine 1-oxide] | 9.39 | 24.6 |
| O=C(O)c1ccc(NC(=O)C(CC2CC2)c2ccc(-c3cc(Cl)ccc3-n3ccnn3)c[n+]2[O-])cc1 (single isomer, unassigned) [Example 54, 4-[(2-{5-[5-chloro-2-(1H-1,2,3-triazol-1-yl)phenyl]-1-oxidopyridin-2-yl}-3-cyclopropylpropanoyl)amino]benzoic acid] | 4.7 | 678 |
| NCc1ccc(Cl)cc1-c1ccc(C(CC2CC2)C(=O)Nc2ccc(C(=O)O)cc2)[n+]([O-])c1 (racemic) [Example 40, 4-[(2-{5-[2-(aminomethyl)-5-chlorophenyl]-1-oxidopyridin-2-yl}-3-cyclopropylpropanoyl)amino]benzoic acid] | 30.6 | 1880 |
| O=C(O)c1ccc(NC(=O)C(CC2CC2)c2ccc(-c3c(-n4cnnn4)ccc(Cl)c3F)c[n+]2[O-])cc1 (racemic) [Example 50, 4-[(2-{5-[3-chloro-2-fluoro-6-(1H-tetrazol-1-yl)phenyl]-1-oxidopyridin-2-yl}-3-cyclopropylpropanoyl)amino]benzoic acid] | 0.19 | 25.1 |
| O=C(O)c1ccc(NC(=O)[C@H](Cc2ccccc2)c2ccc(-c3c(F)ccc(Cl)c3F)c[n+]2[O-])cc1 [Example 4, 4-({(2R)-2-[5-(3-chloro-2,6-difluorophenyl)-1-oxidopyridin-2-yl]-3-phenylpropanoyl}amino) benzoic acid] | 3.63 | 18.2 |
| O=C(Cc1ccc(-c2cc(Cl)ccc2-n2cnnn2)c[n+]1[O-])Nc1ccc(C(=O)O)cc1 [Example 14, 4-[({5-[5-chloro-2-(1H-tetrazol-1-yl)phenyl]-1-oxidopyridin-2-yl}acetyl)amino] benzoic acid] | 18.5 | 1350 |
| O=C(O)c1ccc(NC(=O)C(CC2CC2)c2ccc(-c3cc(Cl)ccc3OC(F)(F)F)c[n+]2[O-])cc1 (single isomer, unassigned) [Example 39, 4-[(2-{5-[5-chloro-2-(trifluoromethoxy)phenyl]-1-oxidopyridin-2-yl}-3-cyclopropylpropanoyl)amino]benzoic acid] | 18.9 | 830 |
| O=C(O)c1ccc(NC(=O)C(CC2CC2)c2ccc(-c3cc(Cl)ccc3-c3cnco3)c[n+]2[O-])cc1 (single isomer, unassigned) [Example 35, 4-[(2-{5-[5-chloro-2-(1,3-oxazol-5-yl)phenyl]-1-oxidopyridin-2-yl}-3-cyclopropylpropanoyl)amino]benzoic acid] | 5.65 | 408 |
| COC(=O)NC12CCC(NC(=O)C(Cc3ccccc3)c3ccc(-c4cc(Cl)ccc4-n4cnnn4)c[n+]3[O-])(CC1)CC2 (single isomer, unassigned) [Example 19, methyl {4-[(2-{5-[5-chloro-2-(1H-tetrazol-1-yl)phenyl]-1-oxidopyridin-2-yl}-3-phenylpropanoyl)amino]bicyclo[2.2.2]oct-1-yl}carbamate] | 4.1 | 9.2 |
| O=C(O)c1ccc(NC(=O)C(CC2CC2)c2ccc(-c3cc(Cl)ccc3-n3cc(C(F)F)nn3)c[n+]2[O-])cc1 (single isomer, unassigned) [Example 52, 4-{[2-(5-{5-chloro-2-[4-(difluoromethyl)-1H-1,2,3-triazol-1-yl]phenyl}-1-oxidopyridin-2-yl)-3-cyclopropylpropanoyl]amino}benzoic acid] |  | 85.6 |
